Assay results: patent US10399961B2, “Heteroarylcarboxamide derivatives as plasma kallikrein inhibitors” (Boehringer Ingelheim International GmbH, priority 2015, dated 2019)

Biological target: human Plasma Kallikrein (KLKB1) (Homo sapiens (Human), UniProt P03952)
Test: Inhibition of KLKB1 endpoint assay
Assay type: biochemical
Settings: fluorogenic substrate H-Pro-Phe-Arg-AMC, 1 hr at Room Temperature, read-out: IC50 measurements for the inhibition of human Plasma Kallikrein (KLKB1)
Experimental: The ability of compounds of Formula I to inhibit plasma kallikrein (KLKB1), Factor XIIa (FXIIa), Factor XIa (FXIa), Factor Xa (FXa), Factor IIa (alpha-thrombin; FIIa), plasmin, trypsin, tissue kallikrein 1 (KLK1), Factor VIIa (FVIIa), or FVIIa complexed with Tissue Factor, phospholipids and CaCl2 (FVIIa/TF/PL/CaCl2) was determined using the following biochemical assays in assay buffer (100 mM Tris, 150 mM NaCL, adjusted to a pH of 7.8 with HCl, and containing 0.1% (w/v) BSA and 0.05% (v/v) Tween20) in the presence of 1% (v/v) DMSO:
Subsequently, PPACK II (Calbiochem) was added as a stop solution to achieve a final concentration of 1 μM and fluorescence was measured using an Envision Reader (PerkinElmer) with the wavelength excitation setting of 355 nm and the wavelength emission setting of 460 nm.

Sequence of human Plasma Kallikrein (KLKB1) (P03952 391-638): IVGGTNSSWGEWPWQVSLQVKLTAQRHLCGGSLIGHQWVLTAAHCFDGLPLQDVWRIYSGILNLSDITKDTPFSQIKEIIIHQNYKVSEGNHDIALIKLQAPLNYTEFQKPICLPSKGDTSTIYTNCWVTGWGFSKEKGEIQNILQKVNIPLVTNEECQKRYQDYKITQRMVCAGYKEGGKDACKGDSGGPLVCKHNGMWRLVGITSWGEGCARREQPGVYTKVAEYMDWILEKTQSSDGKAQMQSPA
Sequence of human Plasma Kallikrein (KLKB1) (P03952 20-390 partner): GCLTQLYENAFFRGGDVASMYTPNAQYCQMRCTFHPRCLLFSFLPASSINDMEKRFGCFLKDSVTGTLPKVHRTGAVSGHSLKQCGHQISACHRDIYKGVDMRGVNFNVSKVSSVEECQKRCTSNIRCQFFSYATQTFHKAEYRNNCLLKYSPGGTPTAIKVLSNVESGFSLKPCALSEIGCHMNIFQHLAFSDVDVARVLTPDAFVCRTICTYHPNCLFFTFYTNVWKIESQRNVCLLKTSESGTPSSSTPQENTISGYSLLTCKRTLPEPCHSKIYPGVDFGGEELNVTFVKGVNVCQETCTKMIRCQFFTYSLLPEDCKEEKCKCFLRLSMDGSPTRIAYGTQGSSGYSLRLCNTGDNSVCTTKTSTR

Structure (SMILES) | IC50 [nM]
Cc1ccc2cc(Cn3cc(C(=O)NC4CCCc5nc(N)ccc54)nn3)ccc2n1 (stereo not shown) [Example 1, 1-(2-Methyl-quinolin-6-ylmethyl)-1H-[1,2,3]triazole-4-carboxylic acid (2-amino-5,6,7,8-tetrahydro-quinolin-5-yl)-amide] | 900
Nc1ccc2c(n1)CCC2NC(=O)c1cn(Cc2ccc(C(F)c3ccon3)cc2)nn1 (stereo not shown) [Example 3] | 5500
C[C@H]1CCN(c2ccc(Cn3cc(C(=O)N[C@@H]4CCc5nc(N)ccc54)c(C(F)(F)F)n3)cn2)C1 [Example 14] | 40
Cc1cnn(Cc2ccc(Cn3cc(C(=O)N[C@@H]4CCc5nc(N)ccc54)c(C(F)(F)F)n3)cc2)c1 [Example 16] | 18

Continued by falling IC50, values first:

IC50 [nM] | Structure (SMILES)
910 | Cc1ccc2cc(Cn3cc(C(=O)NC4CCc5nc(N)ccc54)nn3)ccc2n1 (stereo not shown) [Example 7]
790 | Nc1cc2c(cn1)C(NC(=O)c1cn(Cc3ccc(Cn4cccn4)cc3)nn1)CC2 (stereo not shown) [Example 4]
600 | Nc1nccc2c1C(NC(=O)c1cn(Cc3ccc(Cn4cccn4)cc3)nn1)CC2 (stereo not shown) [Example 2, 1-(4-Pyrazol-1-ylmethyl-benzyl)-1H-[1,2,3]triazole-4-carboxylic acid (1-amino-6,7-dihydro-5H-[2]pyrindin-7-yl)-amide]
560 | CC(C)(O)c1cccn(Cc2ccc(Cn3cc(C(=O)NC4CCc5nc(N)ccc54)nn3)cc2)c1=O (stereo not shown) [Example 9]
32 | Nc1ccc2c(n1)CCC2NC(=O)c1cnn(Cc2ccc(Cn3cccn3)cc2)c1 (stereo not shown) [Example 6]
1 | Cc1cnn(Cc2ccc(Cn3cc(C(=O)N[C@@H]4CCc5c4ccnc5N)c(C(F)(F)F)n3)cc2)c1 [Example 15]
